The values that follow come from patent US12433869B2, “Preventing and treating malaria” (priority 2019, dated 2025).

Experiment [1] has as its system RBC membrane permeability to water. Description: Cell scan of whole blood contacted with agents (Example 2), Pk0 measured. It is filed as cell-based, human. The settings on record: for Pk0: whole blood of healthy volunteer in ACD, agent at the concentration listed in Table 1.
Procedure: A sample of whole blood from a healthy volunteer was drawn into ACD anticoagulant. The unwashed sample was divided into aliquots and was analyzed using the Prior Shine Technology and/or the Provided Cell Scanning Technologies. The following outputs were obtained from the sample:
Using the technologies described herein, a cell-by-cell analysis was converted into a plot of percent change of cell volume vs. osmolality (“Cell Scan Plot”) by converting the individual peak voltage into a cell volume, then calculating a mean volume for an aliquot of cells, and plotting the means to generate the Cell Scan Plot. The percentage change of cell volume at each osmolality is calculated and compared to the mean cell volume of an isotonic cell (e.g., FIG. 1b). On such a plot, Pk0 (see 101) is the osmotic pressure at which the net water flow is zero (i.e., when a cell achieved its maximum volume, i.e., when it is a perfect sphere).
A sample of whole blood from a healthy volunteer was drawn into ACD anticoagulant. Blood samples were divided into aliquots, and each sample was contacted with an agent at concentrations consistent with the agent's in vivo concentration. […] Five minutes after exposure to an agent, the blood sample was evaluated for cell membrane permeability and Pk0 was measured.
In experiment [2] the test system is RBC membrane permeability. Put plainly: Effect of 5-HT on cell membrane permeability of healthy RBCs (Example 3). It is filed as cell-based, human. Here is the method:
A sample of whole blood from a healthy volunteer was drawn into ACD anticoagulant. The sample was then treated with 5-HT (900 ng/mL), and cell membrane permeability was evaluated 5 minutes after treatment.

For `C[C@@H]1[C@H](O)[C@@H](C)/C=C/C=C/C=C/C=C/C=C/C=C/C=C/[C@H](O[C@@H]2O[C@H](C)[C@@H](O)[C@H](N)[C@@H]2O)C[C@@H]2O[C@](O)(C[C@@H](O)C[C@@H](O)[C@H](O)CC[C@@H](O)C[C@@H](O)CC(=O)O[C@H]1C)C[C@H](O)[C@H]2C(=O)O` [Amphotericin B], the Pk0 in experiment [1] was 85 mOsm/kg.

On to `OC[C@H]1O[C@@H](O[C@H]2[C@H](O)[C@@H](O)C(O)O[C@@H]2CO)[C@H](O)[C@@H](O)[C@H]1O` (some centres unmarked) [Lactose], for which, in experiment [1] (after 10 minutes), the “Pk0 lowered to” value is listed as 100 mOsm/kg.

`NCCc1c[nH]c2ccc(O)cc12` [Agent 5-HT, 5-hydroxytryptamine] registered a Pk0 in experiment [1] of 110 mOsm/kg. For the same molecule, the Pk0 after treatment result in experiment [2] (5-HT 900 ng/mL, 5 minutes after treatment, normal Pk0 approx. 140 before) is “approx. 110 mOsm/kg”. Moreover, the “Pk0 shift after contacting with 5-HT” value in experiment [2] (FIG. 5, RBCs of normal healthy individual) was “approx. 30 mOsm/kg”.
